Results published in ChEMBL document CHEMBL4507268 (2021).

Columns and labels:
Conditions in all cases: Compound concentration 1.0 uM
[1] = target: Dual specificity tyrosine-phosphorylation-regulated kinase 1B (Homo sapiens) (UniProt Q9Y463)
[2] = target: Cyclin-dependent kinase 1/cyclin B (Homo sapiens) (UniProt P06493+P14635+Q8WWL7+O95067)
[3] = target: T1, Tyrosine-protein kinase JAK3 (Homo sapiens) (UniProt P52333)
T1 sequence (whole entry): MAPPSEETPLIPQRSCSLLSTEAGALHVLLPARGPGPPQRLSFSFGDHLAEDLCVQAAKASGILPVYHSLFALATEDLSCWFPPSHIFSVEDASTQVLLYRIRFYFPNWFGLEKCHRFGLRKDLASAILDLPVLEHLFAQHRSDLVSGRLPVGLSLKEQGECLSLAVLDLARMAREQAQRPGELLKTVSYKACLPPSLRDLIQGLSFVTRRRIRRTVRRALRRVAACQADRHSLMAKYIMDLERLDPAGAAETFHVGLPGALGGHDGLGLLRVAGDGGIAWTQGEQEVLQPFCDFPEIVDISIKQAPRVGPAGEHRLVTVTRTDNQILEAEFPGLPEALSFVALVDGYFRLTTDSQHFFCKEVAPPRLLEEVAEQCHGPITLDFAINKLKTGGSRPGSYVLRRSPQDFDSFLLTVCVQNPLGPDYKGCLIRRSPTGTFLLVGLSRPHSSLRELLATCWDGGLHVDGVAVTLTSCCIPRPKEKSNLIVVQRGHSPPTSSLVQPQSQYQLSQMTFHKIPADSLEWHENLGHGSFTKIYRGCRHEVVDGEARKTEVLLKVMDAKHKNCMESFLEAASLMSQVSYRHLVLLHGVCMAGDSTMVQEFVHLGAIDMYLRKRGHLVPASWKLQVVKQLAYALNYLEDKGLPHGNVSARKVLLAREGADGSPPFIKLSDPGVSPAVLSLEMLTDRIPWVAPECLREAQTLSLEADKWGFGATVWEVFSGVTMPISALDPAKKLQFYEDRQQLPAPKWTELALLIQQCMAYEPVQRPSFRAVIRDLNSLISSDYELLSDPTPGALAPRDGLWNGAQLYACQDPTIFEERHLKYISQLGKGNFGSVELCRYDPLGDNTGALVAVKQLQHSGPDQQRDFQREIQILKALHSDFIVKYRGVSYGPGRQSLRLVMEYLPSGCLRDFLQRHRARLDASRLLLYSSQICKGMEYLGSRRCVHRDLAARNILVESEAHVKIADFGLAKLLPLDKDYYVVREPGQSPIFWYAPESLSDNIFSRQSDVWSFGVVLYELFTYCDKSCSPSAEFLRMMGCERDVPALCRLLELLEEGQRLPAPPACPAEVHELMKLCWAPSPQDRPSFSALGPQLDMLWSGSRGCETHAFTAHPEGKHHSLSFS

[4] = target: Mitogen-activated protein kinase kinase kinase kinase 5 (Homo sapiens) (UniProt Q9Y4K4)
[5] = target: Tyrosine-protein kinase ABL1 (Homo sapiens) (UniProt P00519)
[6] = target: Tau-tubulin kinase 2 (Homo sapiens) (UniProt Q6IQ55)
[7] = target: Tyrosine-protein kinase Fgr (Homo sapiens) (UniProt P09769)
[8] = target: Fibroblast growth factor receptor 4 (Homo sapiens) (UniProt P22455)
[9] = target: T2, Aurora kinase C (Homo sapiens) (UniProt Q9UQB9)
T2 sequence (whole entry): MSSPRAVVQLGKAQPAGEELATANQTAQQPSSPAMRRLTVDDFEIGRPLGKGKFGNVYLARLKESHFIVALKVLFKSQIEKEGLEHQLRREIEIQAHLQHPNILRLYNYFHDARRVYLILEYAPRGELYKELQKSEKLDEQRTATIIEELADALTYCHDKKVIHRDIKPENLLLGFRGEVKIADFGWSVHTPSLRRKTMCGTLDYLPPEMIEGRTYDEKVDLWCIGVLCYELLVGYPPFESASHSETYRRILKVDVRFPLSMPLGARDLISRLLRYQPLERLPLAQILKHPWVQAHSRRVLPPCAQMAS

[10] = target: T3, Serine/threonine-protein kinase STK11 (Homo sapiens) (UniProt Q15831)
T3 sequence (whole entry): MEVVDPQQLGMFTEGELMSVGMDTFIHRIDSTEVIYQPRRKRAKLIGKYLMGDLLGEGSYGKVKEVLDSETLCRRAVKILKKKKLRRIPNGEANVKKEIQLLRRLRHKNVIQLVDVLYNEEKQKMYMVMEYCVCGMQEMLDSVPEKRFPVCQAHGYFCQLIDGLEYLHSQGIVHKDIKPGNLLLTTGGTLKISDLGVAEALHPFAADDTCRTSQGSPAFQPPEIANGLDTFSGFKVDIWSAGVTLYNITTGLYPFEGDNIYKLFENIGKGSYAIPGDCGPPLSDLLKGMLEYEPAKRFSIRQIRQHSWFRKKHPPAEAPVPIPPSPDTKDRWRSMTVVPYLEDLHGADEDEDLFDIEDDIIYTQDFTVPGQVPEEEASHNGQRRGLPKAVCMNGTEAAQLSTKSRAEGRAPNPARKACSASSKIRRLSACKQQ

[11] = target: T4, Serine/threonine-protein kinase 3 (Homo sapiens) (UniProt Q13188)
T4 sequence (whole entry): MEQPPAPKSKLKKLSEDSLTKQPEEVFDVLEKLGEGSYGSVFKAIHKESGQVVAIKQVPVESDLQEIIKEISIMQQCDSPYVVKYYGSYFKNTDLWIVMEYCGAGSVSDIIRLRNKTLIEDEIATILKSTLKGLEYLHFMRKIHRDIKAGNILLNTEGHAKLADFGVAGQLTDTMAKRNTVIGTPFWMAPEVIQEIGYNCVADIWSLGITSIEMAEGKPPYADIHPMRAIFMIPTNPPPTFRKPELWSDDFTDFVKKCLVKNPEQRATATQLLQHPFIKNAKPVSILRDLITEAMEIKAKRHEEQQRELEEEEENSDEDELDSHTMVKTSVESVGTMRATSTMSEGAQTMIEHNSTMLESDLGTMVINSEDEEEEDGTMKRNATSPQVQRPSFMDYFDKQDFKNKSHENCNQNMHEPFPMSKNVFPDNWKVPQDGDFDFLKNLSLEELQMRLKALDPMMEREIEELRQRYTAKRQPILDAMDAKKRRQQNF

[12] = target: Serine/threonine-protein kinase MARK1 (Homo sapiens) (UniProt Q9P0L2)
[13] = target: Leukocyte tyrosine kinase receptor (Homo sapiens) (UniProt P29376)

Measured: % residual kinase activity

Mitogen-activated protein kinase kinase kinase kinase 5 (Homo sapiens), sequence (Q9Y4K4 whole entry, looked up): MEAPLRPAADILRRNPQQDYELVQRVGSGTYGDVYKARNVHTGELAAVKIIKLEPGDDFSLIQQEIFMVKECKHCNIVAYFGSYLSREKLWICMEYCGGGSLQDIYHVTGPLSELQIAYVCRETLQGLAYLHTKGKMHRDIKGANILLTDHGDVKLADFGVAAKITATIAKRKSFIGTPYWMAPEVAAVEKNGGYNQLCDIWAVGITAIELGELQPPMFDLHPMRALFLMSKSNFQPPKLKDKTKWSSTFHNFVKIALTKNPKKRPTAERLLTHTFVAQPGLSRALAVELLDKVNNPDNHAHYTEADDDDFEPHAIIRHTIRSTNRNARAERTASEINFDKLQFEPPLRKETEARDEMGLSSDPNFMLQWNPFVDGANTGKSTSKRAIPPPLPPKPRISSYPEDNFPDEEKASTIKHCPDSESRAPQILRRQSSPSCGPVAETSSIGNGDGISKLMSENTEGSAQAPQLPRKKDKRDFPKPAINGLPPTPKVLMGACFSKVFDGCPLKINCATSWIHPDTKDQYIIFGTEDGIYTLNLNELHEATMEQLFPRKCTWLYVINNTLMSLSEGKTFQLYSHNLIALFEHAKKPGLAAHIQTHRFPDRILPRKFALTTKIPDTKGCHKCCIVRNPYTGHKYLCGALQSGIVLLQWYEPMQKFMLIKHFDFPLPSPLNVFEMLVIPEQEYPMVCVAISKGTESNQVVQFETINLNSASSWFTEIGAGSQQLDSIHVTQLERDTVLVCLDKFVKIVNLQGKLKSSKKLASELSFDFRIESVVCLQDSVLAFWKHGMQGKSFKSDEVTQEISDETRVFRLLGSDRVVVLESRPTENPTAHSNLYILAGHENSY
Tyrosine-protein kinase Fgr (Homo sapiens), sequence (P09769 2-529 limits assumed): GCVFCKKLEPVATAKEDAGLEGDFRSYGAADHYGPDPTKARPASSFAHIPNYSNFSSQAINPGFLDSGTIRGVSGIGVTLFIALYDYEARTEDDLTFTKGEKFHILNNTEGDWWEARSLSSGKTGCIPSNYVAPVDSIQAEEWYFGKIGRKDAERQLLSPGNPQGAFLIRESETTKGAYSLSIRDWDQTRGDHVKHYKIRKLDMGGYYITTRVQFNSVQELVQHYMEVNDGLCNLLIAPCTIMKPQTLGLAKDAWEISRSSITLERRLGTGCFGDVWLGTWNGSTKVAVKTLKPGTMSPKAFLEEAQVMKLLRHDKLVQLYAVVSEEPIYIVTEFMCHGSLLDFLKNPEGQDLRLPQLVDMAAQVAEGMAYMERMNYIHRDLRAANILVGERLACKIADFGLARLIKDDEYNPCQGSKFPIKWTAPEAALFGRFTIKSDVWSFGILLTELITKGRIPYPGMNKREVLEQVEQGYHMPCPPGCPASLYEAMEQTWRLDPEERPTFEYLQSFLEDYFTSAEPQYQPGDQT
Leukocyte tyrosine kinase receptor (Homo sapiens), sequence (P29376 whole entry): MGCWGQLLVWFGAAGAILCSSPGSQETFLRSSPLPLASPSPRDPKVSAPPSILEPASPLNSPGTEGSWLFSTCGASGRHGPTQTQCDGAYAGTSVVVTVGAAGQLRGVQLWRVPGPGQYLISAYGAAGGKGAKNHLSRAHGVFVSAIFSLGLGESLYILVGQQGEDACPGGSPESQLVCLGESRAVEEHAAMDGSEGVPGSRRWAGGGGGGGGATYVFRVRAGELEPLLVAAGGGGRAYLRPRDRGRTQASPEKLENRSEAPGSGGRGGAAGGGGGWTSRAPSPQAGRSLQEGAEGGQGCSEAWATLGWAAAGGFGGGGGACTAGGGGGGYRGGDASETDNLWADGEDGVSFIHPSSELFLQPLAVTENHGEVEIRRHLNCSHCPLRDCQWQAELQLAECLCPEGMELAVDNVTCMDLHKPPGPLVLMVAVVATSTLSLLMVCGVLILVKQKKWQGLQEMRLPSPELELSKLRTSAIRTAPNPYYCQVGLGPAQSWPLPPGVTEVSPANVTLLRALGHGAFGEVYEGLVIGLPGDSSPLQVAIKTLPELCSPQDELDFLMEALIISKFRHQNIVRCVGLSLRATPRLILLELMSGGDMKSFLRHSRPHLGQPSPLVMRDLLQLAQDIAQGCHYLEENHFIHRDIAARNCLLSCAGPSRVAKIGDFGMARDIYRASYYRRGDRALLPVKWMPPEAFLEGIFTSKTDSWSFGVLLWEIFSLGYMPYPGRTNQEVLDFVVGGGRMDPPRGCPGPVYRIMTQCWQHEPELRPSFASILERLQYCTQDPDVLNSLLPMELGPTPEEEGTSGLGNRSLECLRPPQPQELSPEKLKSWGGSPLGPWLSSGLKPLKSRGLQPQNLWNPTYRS
Dual specificity tyrosine-phosphorylation-regulated kinase 1B (Homo sapiens), sequence (Q9Y463 whole entry, looked up): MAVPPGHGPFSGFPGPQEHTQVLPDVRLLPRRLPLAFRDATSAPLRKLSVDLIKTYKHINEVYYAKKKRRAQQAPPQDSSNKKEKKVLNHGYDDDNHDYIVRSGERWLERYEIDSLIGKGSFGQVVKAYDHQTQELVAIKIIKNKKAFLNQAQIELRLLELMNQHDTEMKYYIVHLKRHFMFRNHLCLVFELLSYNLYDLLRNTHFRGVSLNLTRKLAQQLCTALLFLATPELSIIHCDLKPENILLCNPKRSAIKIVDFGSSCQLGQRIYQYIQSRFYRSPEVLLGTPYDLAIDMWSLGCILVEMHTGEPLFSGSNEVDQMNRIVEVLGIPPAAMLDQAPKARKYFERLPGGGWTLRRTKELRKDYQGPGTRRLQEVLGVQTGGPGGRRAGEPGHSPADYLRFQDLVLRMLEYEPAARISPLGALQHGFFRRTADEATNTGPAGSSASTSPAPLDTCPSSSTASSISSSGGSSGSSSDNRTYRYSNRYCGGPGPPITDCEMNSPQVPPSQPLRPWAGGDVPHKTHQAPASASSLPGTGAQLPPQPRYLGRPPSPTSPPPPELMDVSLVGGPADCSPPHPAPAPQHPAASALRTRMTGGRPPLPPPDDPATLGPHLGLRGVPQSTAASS
Tau-tubulin kinase 2 (Homo sapiens), sequence (Q6IQ55 whole entry): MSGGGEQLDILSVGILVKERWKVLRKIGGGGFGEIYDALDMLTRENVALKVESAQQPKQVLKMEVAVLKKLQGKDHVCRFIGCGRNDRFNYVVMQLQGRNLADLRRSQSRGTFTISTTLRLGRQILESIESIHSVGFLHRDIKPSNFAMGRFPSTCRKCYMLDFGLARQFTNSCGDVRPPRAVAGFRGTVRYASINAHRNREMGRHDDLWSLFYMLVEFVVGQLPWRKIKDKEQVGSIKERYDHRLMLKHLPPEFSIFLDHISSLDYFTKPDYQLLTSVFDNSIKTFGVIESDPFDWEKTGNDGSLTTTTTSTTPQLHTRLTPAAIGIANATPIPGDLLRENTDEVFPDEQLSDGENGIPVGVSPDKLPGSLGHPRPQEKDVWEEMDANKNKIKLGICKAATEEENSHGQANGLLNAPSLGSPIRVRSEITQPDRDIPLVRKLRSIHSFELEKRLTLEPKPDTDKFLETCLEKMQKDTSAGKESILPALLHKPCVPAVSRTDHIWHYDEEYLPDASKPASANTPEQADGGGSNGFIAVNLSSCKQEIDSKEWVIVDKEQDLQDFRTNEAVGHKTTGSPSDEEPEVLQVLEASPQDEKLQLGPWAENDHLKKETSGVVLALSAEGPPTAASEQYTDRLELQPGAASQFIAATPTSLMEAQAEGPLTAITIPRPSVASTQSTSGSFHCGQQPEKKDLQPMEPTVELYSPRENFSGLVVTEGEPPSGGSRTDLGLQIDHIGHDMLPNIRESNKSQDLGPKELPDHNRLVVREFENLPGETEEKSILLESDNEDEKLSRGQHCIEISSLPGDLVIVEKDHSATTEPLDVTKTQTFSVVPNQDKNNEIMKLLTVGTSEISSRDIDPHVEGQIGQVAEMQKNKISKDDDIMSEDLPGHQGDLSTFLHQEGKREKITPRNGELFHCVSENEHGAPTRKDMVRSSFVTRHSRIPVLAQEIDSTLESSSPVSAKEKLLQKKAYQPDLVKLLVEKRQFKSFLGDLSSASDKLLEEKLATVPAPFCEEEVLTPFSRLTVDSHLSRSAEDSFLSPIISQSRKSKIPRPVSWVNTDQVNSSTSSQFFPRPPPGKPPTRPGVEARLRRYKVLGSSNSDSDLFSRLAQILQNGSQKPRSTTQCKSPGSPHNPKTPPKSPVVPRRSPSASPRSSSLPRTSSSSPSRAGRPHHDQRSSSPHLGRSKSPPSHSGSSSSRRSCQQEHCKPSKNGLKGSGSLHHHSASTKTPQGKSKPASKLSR
Fibroblast growth factor receptor 4 (Homo sapiens), sequence (P22455 22-802 limits assumed): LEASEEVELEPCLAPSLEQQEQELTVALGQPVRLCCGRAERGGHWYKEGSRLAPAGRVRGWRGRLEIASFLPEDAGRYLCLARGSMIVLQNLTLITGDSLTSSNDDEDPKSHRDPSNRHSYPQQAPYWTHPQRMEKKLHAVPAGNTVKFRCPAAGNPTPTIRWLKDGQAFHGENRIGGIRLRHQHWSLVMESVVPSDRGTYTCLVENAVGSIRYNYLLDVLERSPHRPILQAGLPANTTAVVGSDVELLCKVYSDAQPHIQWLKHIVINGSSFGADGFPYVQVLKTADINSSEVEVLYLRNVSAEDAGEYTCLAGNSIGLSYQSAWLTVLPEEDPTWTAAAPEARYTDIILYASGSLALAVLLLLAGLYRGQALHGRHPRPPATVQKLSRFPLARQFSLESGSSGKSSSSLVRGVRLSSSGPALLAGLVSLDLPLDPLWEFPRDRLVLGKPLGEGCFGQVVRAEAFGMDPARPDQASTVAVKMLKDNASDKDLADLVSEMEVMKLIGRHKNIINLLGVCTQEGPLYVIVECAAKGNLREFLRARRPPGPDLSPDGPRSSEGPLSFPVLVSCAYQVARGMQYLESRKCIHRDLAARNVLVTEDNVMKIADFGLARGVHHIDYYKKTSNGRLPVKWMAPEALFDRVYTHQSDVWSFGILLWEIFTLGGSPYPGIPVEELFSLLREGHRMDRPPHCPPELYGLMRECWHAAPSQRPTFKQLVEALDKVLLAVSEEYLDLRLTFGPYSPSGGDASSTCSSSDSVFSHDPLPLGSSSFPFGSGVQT

CN1CCN(c2cnc3c(C4CCN(C(=O)c5ccc(OC(F)(F)F)cc5N)CC4)ncnc3c2)CC1 [BAY-885]
inactive: [1] 106% | [2] 101% | [3] 118% | [4] 99% | [5] 100% | [6] 98% | [7] 98% | [8] 96% | [9] 95% | [10] 104% | [11] 128% | [12] 112% | [13] 103%
